Data reported in patent US20250338846A1, “COMPOSITIONS HAVING PESTICIDAL UTILITY AND PROCESSES RELATED THERETO” (CORTEVA AGRISCIENCE, LLC, priority 2022, published 2025).

Key:
Assay type in all cases: in vivo
[1] = system: Sweet Potato Whitefly (Bemisia tabaci, BEMITA); assay: Bioassay 2: Sweet Potato Whitefly, spray on cotton seedlings at crawler emergence, nymphs counted 7-9 days after treatment; conditions: AI alone 0.1 (10-5) % w/v
How it was run: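 Cotton seedlings pruned to one true leaf were colonized by adult B. tabaci for 24 h egg-laying, then sprayed once >25% crawler emergence was underway; solutions 0.001% to 0.00000001% (w/v) in acetone/water with 0.025% Tween 20. Held ~25° C; live 2-3 instar nymphs counted 7-9 days later, Abbott-corrected % control.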

[2] = system: Diamondback Moth (Plutella xylostella, PLUTMA); assay: Bioassay 6: Diamondback Moth, artificial lepidopteran diet, live larvae after 5 days; conditions: DBM; AI alone 0.04 % w/v
Protocol: where X=No. of live nymphs on solvent check and Y=No. of live nymphs on treated bean segments. In Table B5 the “Expected % Control” was calculated using the method described in Colby S. R., Weeds, 1967, 15, 20-22. Bioassay 6: Beet Armyworm (Spodoptera exigua, LAPHEG) (BAW), and Diamondback Moth (Plutella xylostella, PLUTMA) (DBM).
(§1) Stock solutions were prepared with Formula One as well as for each of the active ingredients individually. Test solutions were prepared from the stock solutions. Test solutions were prepared containing Formula One, the individual active ingredients, and mixtures of Formula One with each of the active ingredients. The test solution for Formula One was prepared by adding 500 μL of the stock solution to a 25 mL glass vial, then adding 500 μL of a 9:1 mixture of acetone: water. The individual active ingredients were prepared by adding 500 μL of stock solution to a 25 mL glass vial, then adding 500 μL of a 9:1 mixture of acetone: water. The test solutions containing mixtures of Formula One and the individual active ingredients were prepared by adding 500 μL of the active ingredient stock solution to a 25 mL glass vial, followed by 500 μL of the Formula One stock solution, creating a test solution containing 4000 ppm Formula One and 0.4% (w/v) of the active ingredient. Each test solution was serially diluted to create desired doses of test solutions (0.4% (w/v), 0.04% (w/v), 0.004% (w/v), 0.0004% (w/v), 0.00004% (w/v), and 0.000004% (w/v)). In test solutions containing mixtures of Formula One and the active ingredients, the active ingredients were diluted as described above, but the Concentration of Formula One was held constant (0.4% (w/v)). The highest dose test solution (0.4% (w/v)) was discarded, leaving 5 test solution concentrations used in the test.
The test solutions were tested against BAW and DBM using the following procedure: An artificial lepidopteran diet (Multispecies Lepidopteran Diet, Southland Products) was distributed in 128-cell bioassay trays (Frontier Agricultural Sciences™). 50 μL of test solution was pipetted into a cell in the bioassay tray. (The test solution doses of 0.04% (w/v), 0.004% (w/v), 0.0004% (w/v), 0.00004% (w/v), and 0.000004% (w/v) translated to concentrations of 5, 0.5, 0.05, 0.005, and 0.0005 ug/cm^2 on the diet, respectively.) A reference treatment (solvent check) was treated with the diluent only. […] After 5 days, the number of live larvae were recorded from each cell and percent control was measured using Abbott's correction formula (W. S. Abbott, J. Econ. Entomol. 18 (1925), pp. 265-267) as follows:
where X=No. of live larvae on solvent check and Y=No. of live larvae on treated diet. In Table B6 the “Expected % Control” was calculated using the method described in Colby S. R., Weeds, 1967, 15, 20-22. […]

[3] = system: Western Flower Thrips (Frankliniella occidentalis, FRANOC); assay: Bioassay 3: Western Flower Thrips, cotton leaf disc dip, live WFT counted 3 days after treatment; conditions: Frankliniella occidentalis, foliar, 72 h; AI alone 0.0003125 % w/v
Protocol: Stock solutions of Formula One and various active ingredients were prepared initially at a concentration of 8 mg/ml for Formula One and 1 mg/mL for the active ingredients, respectively, using acetone as a diluent. Stock solutions were prepared with Formula One as well as for each of the active ingredients individually. Test solutions were prepared from the stock solutions. Test solutions were prepared containing Formula One, the individual active ingredients, and mixtures of Formula One with each of the active ingredients. The test solution for Formula One was prepared by adding 500 μL of the stock solution to a 25 mL glass vial, then adding 500 μL of acetone, followed by the addition of 9 mL water with 0.025% Tween®) 20 to create a 0.04% (w/v) solution. The test solutions of the individual active ingredients were prepared by adding 500 μL of stock solution to a 25 mL glass vial, then adding 500 μL of acetone, followed by the addition of 9 mL water with 0.025% Tween®) 20 to create a 0.005% (w/v) solution. The test solutions containing mixtures of Formula One and the individual active ingredients were prepared by adding 500 μL of the active ingredient stock solution to a 25 mL glass vial, followed by 500 μL of the Formula One stock solution, then by the addition of 9 mL water with 0.025% Tween®) 20 to create a test solution containing 0.04% (w/v) Formula One and 0.005% (w/v) of the active ingredient. Each test solution was serially diluted to create desired doses of test solutions (0.005% (w/v), 0.00125% (w/v), 0.0003125% (w/v), 0.000078% (w/v), and 0.0000195% (w/v)). In test solutions containing mixtures of Formula One and the active ingredients, the active ingredients were diluted as described above, but the Concentration of Formula One was held constant (0.04% (w/v)).
The test solutions were tested against WFT using the following procedure: Leaf discs (2.7 cm in diameter) were cut from the true leaves of cotton plants. Leaf discs were dipped into the test solutions and shaken to ensure complete coverage of the leaf disc and then placed in Millipore®) PetriSlides containing a filter paper disc. Treated leaf discs were air dried for approximately 1 hour. Each leaf disc was infested with 5 WFT (9-10-day old nymphs) by placement on each leaf disc, and the PetriSlides were capped to prevent escape. Each treatment was replicated three times and the test treatments were held at approximately 26° C. and ambient relative humidity (RH) prior to grading. Reference discs (solvent check) were treated with the diluent only. Evaluation was conducted by counting the number of live WFT under magnification 3 days after treatment. Percent control was measured using Abbott's correction formula (W. S. Abbott, J. Econ. Entomol. 18 (1925), pp. 265-267) as follows:
where X=No. of live nymphs on solvent check leaf discs and Y=No. of live nymphs on treated leaf discs. In Table B3 the “Expected % Control” was calculated using the method described in Colby S. R., Weeds, 1967, 15, 20-22. Bioassay 4: Western Tarnished Plant Bug (Lygus hesperus, LYGUHE) (“WTPB”).

[4] = system: Diamondback Moth (Plutella xylostella, PLUTMA); assay: Bioassay 9: Diamondback Moth, leaves of track-sprayed cabbage plants, mortality and feeding damage scored; conditions: Feeding damage control; AI alone 40 (10^-5) Wt %
[5] = system: Diamondback Moth (Plutella xylostella, PLUTMA); assay: as above; conditions: AI alone 20 (10^-5) Wt %
Protocol: (§2) where X=No. of live nymphs on solvent check plants and Y=No. of live nymphs on treated plants. In Table B2 the “Expected % Control” was calculated using the method described in Colby S. R., Weeds, 1967, 15, 20-22. Bioassay 9: Diamondback Moth (Plutella xylostella, PLUTMA) (DBM).
as §1
Cabbage seedlings, grown in 3-inch pots with 2-3 small (3-5 centimeter (cm)) true leaves, were used as test substrate. Cabbage plants were sprayed with desired concentrations of Formula One and active ingredients or their mixtures using a track Sprayer. Reference plants (solvent check) were sprayed with diluent only (0.025% Tween® 20 and 10% acetone:methanol (1:1) in water). The sprayed cabbage plants were allowed to dry for 1 hour, after which leaves from each treatment were placed in a cell of a plastic tray. One leaf per cell and 8 replicates for each cell. The tested doses ranged between 0.000001% (w/v) to 0.0002% (w/v). One 2nd instar DBM larvae were placed in each cell of the tray and allowed to feed on the cabbage foliage for […] after which the mortality and feeding damage were scored. Test trays were held at approximately 26° C. and ambient relative humidity (RH) prior to grading. The number of live larvae were recorded from each cell and percent control was measured using Abbott's correction formula (W. S. Abbott, J. Econ. Entomol. 18 (1925), pp. 265-267) as follows:
where X=No. of live larvae on solvent check and Y=No. of live larvae on treated diet. In Table B6 the “Expected % Control” was calculated using the method described in Colby S. R., Weeds, 1967, 15, 20-22.

[6] = system: Cotton Aphid (Aphis gossypii, APHIGO); assay: Bioassay 7: Cotton Aphid, foliar spray on infested cotton seedlings, live aphids counted three days after treatment
Protocol: where X=No. of live larvae on solvent check and Y=No. of live larvae on treated diet. In Table B6 the “Expected % Control” was calculated using the method described in Colby S. R., Weeds, 1967, 15, 20-22. Bioassay 7: Cotton Aphid (Aphis gossypii, APHIGO) (“CA”).
Stock solutions of Formula One and one or more of the active ingredients were prepared at concentrations of 1 mg/mL using a 1:1 mixture of acetone: methanol as a diluent. The stock solutions were prepared with Formula One as well as for each of the active ingredients individually. Test solutions were prepared from the stock solutions. Test solutions were prepared containing Formula One, the individual active ingredients, and mixtures of Formula One with each of the active ingredients. The test solutions for Formula One and the individual active ingredients were prepared by adding 1.5 mL of stock solution to a 30 mL glass vial, then adding 1.5 mL of 1:1 acetone: methanol solvent, followed by the addition of 27 mL water with 0.025% Tween® 20 to create a […]. Each test solution was serially diluted to create desired doses of test solutions ranging from 0.000001 to 0.0025% (w/v). The test solutions were tested against CA using the following procedure: cotton seedlings were grown in 3-inch pots with one true leaf (2-5 cm in diameter) were used as test substrate. The seedlings were infested with 20-50 CA (wingless adult and nymph stages) one day prior to chemical application. Four pots with individual seedlings were used for each treatment. A hand-held aspirator-type sprayer was used for spraying a solution to both sides of […] leaves until runoff. Reference plants (solvent check) were sprayed with the diluent only (0.025% Tween® 20 and 10% acetone:methanol (1:1) in water). Treated plants were held in a holding room for three days at approximately 25° C. and ambient relative humidity (RH about 20% to about 45%) prior to grading. Evaluation was conducted by counting the number of live aphids per plant under a microscope three days after treatment. Percent control was measured using Abbott's correction formula (W. S. Abbott, J. Econ. Entomol. 18 (1925), pp. 265-267) as follows:
(§3) where X=No. of live aphids on solvent check plants and Y=No. of live aphids on treated plants. In Table B1 the “Expected % Control” was calculated using the method described in Colby S. R., Weeds, 1967, 15, 20-22. Bioassay 8: Sweet Potato Whitefly (Bemisia tabaci, BEMITA) (“SPW”).

[7] = system: Sweet Potato Whitefly (Bemisia tabaci, BEMITA); assay: Bioassay 8: Sweet Potato Whitefly, spray on cotton seedlings at crawler emergence, nymphs counted 7-9 days after treatment
Protocol: as §3
Stock solutions were prepared with Formula One as well as for each of the active ingredients individually. Test solutions were prepared from the stock solutions. Test solutions were prepared containing Formula One, the individual active ingredients, and mixtures of Formula One with each of the active ingredients. The test solutions for Formula One and the individual active ingredients were prepared by adding 500 μL of stock solution to a 25 mL glass vial, then adding 500 μL of acetone, followed by the addition of 9 mL water with 0.025% Tween®) 20 to create a 0.001% (w/v) solution. The test solutions containing mixtures of Formula One and the individual active ingredients were prepared by adding 500 μL of the active ingredient stock solution to a 25 mL glass vial, followed by 500 μL of the Formula One stock solution, then by the addition of 9 mL water with 0.025% Tween®) 20 to create a test solution containing 0.001% (w/v) Formula One and 0.001% (w/v) of the active ingredient. Each test solution was serially diluted to create desired doses of test solutions (0.001% (w/v), 0.0001% (w/v), 0.00001% (w/v), 0.000001% (w/v), 0.0000001% (w/v), […] and 0.00000001% (w/v)).
The test solutions were tested against SPW using the following procedure: Cotton seedlings grown in 3-inch pots, pruned so that only one true leaf remained, were used as test substrate. Adult B. tabaci were allowed to colonize the cotton plants and lay eggs for 24 hours after which all adults were removed from the plants using compressed air. Plants were monitored for egg development and, when crawler emergence was underway (>25% emergence based on visual examination using a microscope), the plants were sprayed using the test solutions and methods described above for green peach aphids (GPA). Treated plants were held in a holding room at approximately 25° C. and ambient relative humidity (RH) prior to grading. Evaluation was conducted by counting the number of developed 2-3 instar nymphs per plant under a microscope 7-9 days after treatment. Percent control was measured using Abbott's correction formula (W. S. Abbott, J. Econ. Entomol. 18 (1925), pp. 265-267) as follows:
as §2

Compound	Average % Control AI [1] [%]	Average % Control AI [2] [%]	pest or weed control at 0.0003125 % strength [3] [%]	Average % Control AI [4] [%]	Average % Control AI ([5]; Acute mortality) [%]	Average % Control AI ([5]; Feeding damage control) [%]	Average % Control A1 ([6]; AI alone 0.2 (10^-5) Wt %) [%]	Average % Control A1 ([6]; AI alone 7 (10^-5) Wt %) [%]	Average % Control A1 ([6]; AI alone 12 (10^-5) Wt %) [%]	Average % Control A1 ([7]; AI alone 0.1 (10^-5) Wt %) [%]	Average % Control A1 ([7]; AI alone 0.8 (10^-5) Wt %) [%]
CNC(=O)O/N=C(\SC)C(=O)N(C)C [Oxamyl]	0	0	0	–	–	–	–	–	–	–	–
Spidoximat	–	–	–	37.98	0.00	17.83	13.25	32.54	35.09	37.90	62.26
